Like-named read-outs stand apart in the source and are kept apart here.
Legend:
Wistar rats [1] = test: In vivo comet assay in liver and duodenum; parameters: species or system rat; conditions: positive control 200 mg/kg bw
[2] = test system: Intestinal bacteria isolated from human faeces; conditions: 5 mg flavonoids in 50 mL broth, 2 days, anaerobic; ref Kim et al. (1998); cited from earlier work
Clostridium orbiscindens = conditions: ref Schoefer et al. (2003); cited from earlier work
[3] = ref Gardana et al. (2007), cited from earlier work
Wistar rats [4] = test: In vivo micronucleus assay in peripheral blood; parameters: species or system rat; conditions: positive control, 10 mg/kg bw, 48 h before sacrifice

SMILES: CCOS(C)(=O)=O [EMS, ethyl methanesulfonate]
- % tail intensity (Wistar rats [1]; duodenum): 19.67%
- % tail intensity (Wistar rats [1]; liver): 18.30%

SMILES: C[C@@H]1O[C@@H](O[C@H]2[C@H](Oc3cc(O)c4c(c3)O[C@H](c3ccc(O)cc3)CC4=O)O[C@H](CO)[C@@H](O)[C@@H]2O)[C@H](O)[C@H](O)[C@H]1O [naringin, reference compound]
- Results: bacterial metabolism [2]: metabolised to naringenin at early time
- Results: conversion by C. orbiscindens (Clostridium orbiscindens): did not convert

SMILES: COc1ccc([C@@H]2CC(=O)c3c(O)cc(O)cc3O2)cc1O [hesperetin, reference compound]
- mean C max (plasma hesperetin) ([3]; BOJ 150 mL, 51 mg hesperetin): 0.043 µg/mL
- mean C max (plasma hesperetin) ([3]; BOJ 300 mL, 102 mg hesperetin): 0.08 µg/mL

SMILES: O=P1(N(CCCl)CCCl)NCCCO1 (stereo not shown) [CPA, cyclophosphamide, reference compound]
- % MNPCE frequency (Wistar rats [4]): 0.93 ± 0.16%

Reference: PMC11094580 (EFSA Journal, 2024)
